Test results published in US20040138204A1, “Compositions and methods for pain reduction” (priority 2002, published 2004).

Experiments:
[1] = system: rat hind paw withdrawal (nociception); assay: Von Frey fiber behavioral test after epidural glutamate infusion; format: in vivo; details: epidural infusion 2.0-0.0002 mM for 72 hours; most prominent on day 3, also day 1
Protocol: Behavioral experiments have been completed at a wider range of concentrations. Rats are infused with epludial glutamate at concentrations of 2.0, 0.2, 0.02, 0.002 and 0.0002 mM for 72 hours (3 days). Von Frey fiber examinations were performed on left and right hind paws 24 hours before infusion and then 24, 72, and 144 hours after onset of glutamate infusion. The experimenter was blinded as to which infusate was used. Contralateral to ipsilateral differences were analyzed with respect to concentration of glutamate infusion and hours post-procedure. […] The response was most significant at the 0.02 mM concentration but present at 0.002 and 0.2 mM concentrations. […]
Behavioral Tests—The von Frey Fiber mechanical allodynia assay is performed 24 hours preoperatively and 24, 72, and 144 hours postoperatively. […] Starting with 0.6 grams of force and working up to 1, 1.4, 2, 4, 6, 8, 10, 15, and finally 26, each paw's response is recorded. […]
The protocol has the experimenter tap the bottom surface of the paw with one fiber at a time for six seconds each. […] If a response is not recognized, then the next fiber (one that elicited 1.0 grams of force) is applied, and so on in increasing order of force until a paw withdrawal response was recorded. After the initial response is recorded, the experimenter completes the testing procedure by testing the same paw with fibers in descending order of force. […]

[2] = system: AMPA, NMDA and kainate receptors, dorsal horn laminae I-III; assay: Immunohistochemistry and densitometry of dorsal horn glutamate receptor expression after epidural glutamate infusion; format: in vivo, rat
Protocol: Immunohistochemical studies show expression of dorsal horn glutamate receptors in painful conditions involving the lower extremity in the rat. A relatively high concentration (2 mmol/L) of glutamate was infused for 72 hours (same infusion time period as in previous experiments) and densitometry was performed at 40× AMPA, NMDA and kainate for receptor expression at dorsal horn laminae I-III bilaterally, at spinal cord levels where the dorsal root ganglion input would enter the spinal cord dorsal horn, to determine whether receptor expression was increased. The microscopist was blinded to the nature of the sample.

[3] = 2 mmol/L glutamate, 72 hours, p<0.01

N[C@@H](CCC(=O)O)C(=O)O [glutamate]
von Frey contralateral to ipsilateral difference (hypersensitivity) [1]: significant hypersensitivity postoperatively
AMPA, NMDA and kainate receptor expression versus saline-infused controls ([2]; 2 mmol/L glutamate infused for 72 hours, dorsal horn laminae I-III, two-tailed T test): upregulation of expression over saline-infused controls
AMPA receptor expression ipsilateral versus contralateral [2, 3]: upregulation of receptor expression ipsilateral to the side of infusion
NMDA receptor expression ipsilateral versus contralateral [2, 3]: upregulation of receptor expression ipsilateral to the side of infusion
kainate receptor expression ipsilateral versus contralateral ([2]; 2 mmol/L glutamate, 72 hours, p<0.05): upregulation of receptor expression ipsilateral to the side of infusion
